Results from article PMC7655109, “High-resolution structures of multiple 5-HT3AR-setron complexes reveal a novel mechanism of competitive inhibition” (eLife, 2020).

Assays:
Type in all cases: cell-based
[1] = target: T1, 5-HT3AR (serotonin (3) receptor subunit A, homopentamer) (Mus musculus, UniProt P23979); experiment: cryo-EM structure ([…] Å); also TEVC inhibition of serotonin currents in oocytes
T1 construct: gene Htr3a; full-length, C-terminal 1D4-tag and four N-terminal strep-tags; modelled Thr7–Leu335 and Leu397–Ser462
T1 sequence (P23979 34-483 isoform P23979-2): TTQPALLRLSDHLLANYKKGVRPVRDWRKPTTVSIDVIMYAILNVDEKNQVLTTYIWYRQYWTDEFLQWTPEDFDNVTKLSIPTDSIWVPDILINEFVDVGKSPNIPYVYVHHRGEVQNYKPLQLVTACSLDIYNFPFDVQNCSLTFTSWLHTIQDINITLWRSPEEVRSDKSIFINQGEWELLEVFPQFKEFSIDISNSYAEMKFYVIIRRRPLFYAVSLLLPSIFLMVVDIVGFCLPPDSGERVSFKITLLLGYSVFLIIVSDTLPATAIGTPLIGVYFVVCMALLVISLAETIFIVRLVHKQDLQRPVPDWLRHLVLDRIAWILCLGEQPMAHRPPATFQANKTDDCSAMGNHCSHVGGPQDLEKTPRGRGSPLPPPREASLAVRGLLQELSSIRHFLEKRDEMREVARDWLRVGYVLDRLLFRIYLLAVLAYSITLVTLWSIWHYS

[2] = target: T2, 5-HT3AR (serotonin (3) receptor subunit A, homopentamer) (Mus musculus, UniProt P23979); experiment: two-electrode voltage clamp in oocytes, inhibition of serotonin-induced current on co-application
T2 construct: gene Htr3a; 5-HT3AR expressed in Xenopus laevis oocytes
T2 sequence (P23979 24-489): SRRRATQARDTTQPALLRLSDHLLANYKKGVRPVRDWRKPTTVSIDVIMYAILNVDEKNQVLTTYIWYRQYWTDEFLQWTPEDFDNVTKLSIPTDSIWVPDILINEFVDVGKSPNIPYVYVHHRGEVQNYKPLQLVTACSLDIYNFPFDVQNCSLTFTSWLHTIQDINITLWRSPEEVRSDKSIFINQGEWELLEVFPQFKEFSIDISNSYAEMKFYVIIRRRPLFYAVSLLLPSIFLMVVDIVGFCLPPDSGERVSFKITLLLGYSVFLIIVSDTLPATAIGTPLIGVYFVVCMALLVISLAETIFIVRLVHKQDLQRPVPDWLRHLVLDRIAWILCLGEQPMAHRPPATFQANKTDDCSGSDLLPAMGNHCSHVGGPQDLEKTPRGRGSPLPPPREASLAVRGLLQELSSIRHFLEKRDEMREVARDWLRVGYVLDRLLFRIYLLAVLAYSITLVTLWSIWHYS

[3] = target: T1, 5-HT3AR (serotonin (3) receptor subunit A, homopentamer); experiment: cryo-EM structure ([…] Å); also TEVC inhibition of serotonin currents in oocytes; remark: listed apart in the source
[4] = target: T1, 5-HT3AR (serotonin (3) receptor subunit A, homopentamer); experiment: as above; remark: listed apart in the source

Cc1[nH]cnc1CN1CCc2c(c3ccccc3n2C)C1=O [alosetron]
potency for TEVC inhibition of serotonin currents [1]: ~ 0.1 nM

CN1C2CCCC1CC(NC(=O)c1nn(C)c3ccccc13)C2 (stereo not shown) [granisetron]
two-electrode voltage clamp in oocytes, inhibition of serotonin-induced current [2]: ~ 1 nM

Cc1nccn1CC1CCc2c(c3ccccc3n2C)C1=O (stereo not shown) [ondansetron]
inhibition of serotonin currents in oocytes [3]: ~ 0.1 nM

O=C1c2cccc3c2[C@H](CCC3)CN1[C@@H]1CN2CCC1CC2 [palonosetron]
cryo-EM structure (3.32 Å); also TEVC inhibition of serotonin currents in oocyte [4]: ~ 1 nM
